In patent US20100048594A1, “USE OF CYTOHESIN INHIBITORS FOR CHEMICALLY INDUCING LONGEVITY” (RHEINISCHE FRIEDRICH-WILHELMS UNIVERSITAT, priority 2006, published 2010):

Experiments:
[1] = tested on: IGFBP1 (insulin-like growth factor binding protein); assay: Transcription of IGFBP1 in insulin-treated HepG2 liver cells (quantitative PCR); assay type: cell-based, human
Procedure: Human hepG2 cells (ECACC) were cultivated in EMEM medium (Cambrex) with the addition of 10% fetal calf serum. 10^5 cells were seeded in 2 ml medium in 6 well plates and were cultivated at 37° C. in a moist atmosphere with 5% CO2 for 1 to 3 days, before being used for experiments.
For human HepG2 cells (ECACC), serum was removed from the medium for 24 hours, the cells were incubated for an additional 12 hours with concentrations of 1.5625 μM, 3.125 μM, 6.25 μM, 12.5 μM, 25 μM or 50 μM of the compound according to formula (9) and with 10 nM insulin. Control cells received DMSO in a concentration corresponding to that of the treated cells.
Total RNA was isolated using the Absolutely RNA Kit (Stratagene), and the cDNA was produced by means of the reverse transcription of 2 μg RNA using the High Capacity cDNA Archive Kit (Applied Biosystems), according to the manufacturer's instructions. Quantitative PCR was performed in 10 μl batches in an iQ5 Cycler (BioRad) by means of the TaqMan Gene Expression Assay (Applied Biosystems) using gene-specific primer (Applied Biosystems), according to the manufacturer's instructions. The data were normalized to the β2-microglobulin expression.

[2] = tested on: Drosophila melanogaster flies; assay: Lifespan of adult Drosophila melanogaster flies fed with compound (Kaplan-Meier analysis); assay type: in vivo; conditions: for Average Lifespan: ±margin of error
Procedure: The experiments were conducted on isogenic flies (Drosophila melanogaster) of the genotype white^1118, also called white^− or w^−, and mutants (w^1118; step^k08110/step^SH0323) (strain # 10770 from the public Bloomington Stock Center, genotype: step^k08110/CyO, URL http://flybase.bio.indiana.edu/reports/FBstOO10770.html; strain # FBst0103734 from the public Szeged Stock Center, genotype: step^SH0323/CyO, URL http://flybase.bio.indiana.edu/reports/FBst0103734.html), in which the Drosophila cytohesin steppke is mutated and therefore defective.
By crossing the two steppke alleles k08110 and SH0323 eight times with whites flies, an isogenic genetic background is produced, which permits a comparison of the lifespans between the genotypes of the type white^1118 and the mutants (w^1118; step^k08110/step^SH0323). The average lifespan of the wild type was approximately 25 days, while that of the mutants (w^1118; step^k08110/step^SH0323) was approximately 30 days.
To produce the special food, 32.5 g autolysed yeast (Fluka (Catalog No. 73145)) and 10 g agar (Difco (Catalog No. 281230)) were mixed with 300 ml water (demineralized, Roth (Catalog No. 3175)) and autoclaved at 120° C. for 20 minutes. The solution was cooled to 60° C., and 32.5 g α-D(+)-glucose monohydrate (Roth (Catalog No. 6887)) were added under stirring. 15 ml 10% (w/v) p-hydroxybenzoic acid methylester (Sigma (Catalog No. H3647)) solution dissolved in 70% (v/v) ethanol (Roth (Catalog No. 9065)) and 1.35 ml dimethylsulfoxide (DMSO, Roth (Catalog No. A994)) were then added. Water was then added to this basic solution to a volume of 450 ml, which was then held at a temperature of 60° C. For the control food, 50 ml of a 0.7% (v/v) DMSO solution in water were produced. For the food containing the compounds according to formulas (9) or (25), 0.2 ml of a 25 mM solution of the compounds according to formula (9) or (25) in 100% DMSO were added to 49.8 ml of a 0.3012% DMSO solution in water.
These 50 ml of the control solutions and the solutions containing the compounds according to formula (9) or (25) were each mixed with 450 ml of the basic solution, and were placed in 4 ml amounts in polystyrene containers (height 9.5 cm, diameter 2.4 cm, sealed with cotton wadding) to maintain the flies. After 24 hours, the cooled containers were sealed with cotton wadding and stored at 4° C.
The final concentration of the food components in the control food was 6.5% (w/v) autolysed yeast, 6.5% (w/v) α-D(+)-glucose monohydrate, 2% (w/v) agar, 0.3% (w/v) p-hydroxybenzoic acid methylester, 2.1% ethanol (v/v), 0.34% (v/v) DMSO.
(§1) The final concentration of the food components in the food containing the compound according to formula (9) was 6.5% (w/v) autolysed yeast, 6.5% (w/v) α-D(+)-glucose monohydrate, 2% (w/v) agar, 0.3% (w/v) p-hydroxybenzoic acid methylester, 2.1% ethanol (v/v), 0.34% (v/v) DMSO, 10 μM compound according to formula (9).
as §1, with “(25)” for “(9)”, “(25).” for “(9).”
The larvae were maintained on standard fly food containing 1.1% (w/v) brewer's yeast (“Gewürzmühle Brecht” company), 5.43% (w/v) cornmeal, 0.53% (w/v) filamentous agar (“Gewürzmühle Brecht” company), 6.6% (v/v) sugar beet syrup (Grafschafter), 1.3% (v/v) ethanol (Roth company), 0.13% (w/v) p-hydroxybenzoic acid methylester (Sigma).
24 hours after emergence of the imagines, the adult flies, females and males were separated under a brief CO2 anesthetization lasting less than 2 minutes. During the 24 hours after emergence, the animals were fed using standard fly food. […]

For COc1nc(-c2ccc3c(c2)OCO3)n(-c2ccc(NC(=O)CSc3ccccc3)cc2)n1 [Compound (9)], the “IGFBP1 expression relative to untreated cells” value ([1]; 12.5 μM compound, 10 nM insulin) was “nearly the value of the untreated cells”, the “block of the insulin-dependent inhibition of the transcription of IGFBP1” value ([1]; 12 hours with compound and 10 nM insulin) was “nearly completely block” and the “increase in average lifespan as compared with the untreated control animals” value ([2]; control animals (w^1118), 10 μM compound in food, P<0.05) was 11.5%. For the same compound, the “Average Lifespan” value ([2]; genotype w^1118, female flies, 10 μM compound in food) was 28.1 (±1.0) Days, the “Average Lifespan” value ([2]; genotype w^1118, step^k08110/step^SH0323 mutants, female flies, 10 μM compound in food) was 34.6 (±0.8) Days and the “longer lifespan of treated mutants than untreated control animals” value ([2]; steppke mutants fed 10 μM compound versus untreated w^1118) was 37.3%. For the same compound, the “increase in the average lifespan of mutants by feeding” value ([2]; steppke mutants, 10 μM compound in food, versus untreated mutants, P<0.001) was 15.3%.
